One test addresses T1, ALPL (Mus musculus, UniProt P09242).
T1 construct: from tissue; host or cells: brain sections (cerebral cortex vasculature) of aged C57BL/6 mice dosed in vivo
T1 sequence (P09242 18-501): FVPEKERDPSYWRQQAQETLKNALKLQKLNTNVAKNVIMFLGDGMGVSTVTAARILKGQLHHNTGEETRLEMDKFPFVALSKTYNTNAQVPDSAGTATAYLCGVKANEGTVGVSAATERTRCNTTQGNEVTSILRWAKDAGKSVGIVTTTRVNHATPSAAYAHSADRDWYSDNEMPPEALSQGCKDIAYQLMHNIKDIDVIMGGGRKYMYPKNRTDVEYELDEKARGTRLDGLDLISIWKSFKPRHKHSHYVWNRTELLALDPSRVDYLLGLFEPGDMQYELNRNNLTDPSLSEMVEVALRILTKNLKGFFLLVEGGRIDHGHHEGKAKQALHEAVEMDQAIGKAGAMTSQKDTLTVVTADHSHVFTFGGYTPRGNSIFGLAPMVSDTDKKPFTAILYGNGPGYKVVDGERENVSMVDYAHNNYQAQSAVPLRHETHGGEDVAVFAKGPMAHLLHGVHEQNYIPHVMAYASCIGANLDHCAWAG
In words: ALPL activity in the cerebral cortex vasculature (Red Alkaline Phosphatase Substrate Kit). To be noted: aged (22 m.o.) mice, 8.75 mg/kg intraperitoneally twice per day for three days, vs vehicle. Type of test: in vivo. From the text:
FIG. 12A is a dot plot representation of cell-surface, druggable gene candidates on brain endothelial cells. Genes were plotted by their degree of blood-brain barrier specificity (Daneman et al., PLoS One (2010). doi:10.1371/journal.pone.0013741) and correlation with plasma uptake. Genes were colored by their upregulation (brown) or downregulation (green) with age. FIG. 12B includes representative images of calcified nodules (Alizarin red staining) detected in aged (23 m.o.—bottom panel) but not young (3 m.o.—top panel) mice, recapitulating nodules seen in pericyte-deficient Pdgfbret/ret mice (Keller et al., Nat. Genet. (2013). doi:10.1038/ng.2723) (representative image of n=5 mice per age). […] FIG. 12E is a graph illustrating quantification of ALPL expression in the cerebral cortex vasculature of young (3 m.o.) and aged (23 m.o.) mice (n=7, two-sided t-test; mean+/−s.e.m.). […] Uptake in the brain endothelium and parenchyma was assessed by flow cytometry and confocal microscopy of the cortex and hippocampus. […] FIG. 12H is a graph illustrating quantification of ALPL activity in the cerebral cortex vasculature of aged (22 m.o.) mice treated with ALPL inhibitor (anti-ALPL) or vehicle and in young (3 m.o.) mice (n=6-9, one-way ANOVA with Tukey's multiple comparisons correction; mean+/−s.e.m.). […]

The next test relates to brain parenchymal cells. Description: Flow cytometry of brain parenchymal (CD31-/CD45-) cell uptake of tracer after ALPL inhibitor treatment. To be noted: vs vehicle. The class given is in vivo, mice. The source says:
FIG. 12A is a dot plot representation of cell-surface, druggable gene candidates on brain endothelial cells. Genes were plotted by their degree of blood-brain barrier specificity (Daneman et al., PLoS One (2010). doi:10.1371/journal.pone.0013741) and correlation with plasma uptake. Genes were colored by their upregulation (brown) or downregulation (green) with age. FIG. 12B includes representative images of calcified nodules (Alizarin red staining) detected in aged (23 m.o.—bottom panel) but not young (3 m.o.—top panel) mice, recapitulating nodules seen in pericyte-deficient Pdgfbret/ret mice (Keller et al., Nat. Genet. (2013). doi:10.1038/ng.2723) (representative image of n=5 mice per age). FIG. 12C includes representative images of Type I Collagen expression (green) in Lectin^+ vasculature (red) in the cerebral cortex of young (3 m.o.—left panels) and aged (23 m.o.—right panels) mice. Scale bar=40 microns. FIG. 12D includes representative images of ALPL expression (yellow) in AQP4^+ vasculature (purple) in the cerebral cortex of young (3 m.o.—left panels) and aged (23 m.o.—right panels) mice. Scale bar=40 microns. FIG. 12E is a graph illustrating quantification of ALPL expression in the cerebral cortex vasculature of young (3 m.o.) and aged (23 m.o.) mice (n=7, two-sided t-test; mean+/−s.e.m.). FIG. 12F is a schematic diagram illustrating cerebrovascular ALPL inhibition. Aged (22 m.o.) mice were injected intraperitoneally with vehicle or ALPL inhibitor twice a day for three days before intravenous injection of plasma, human holotransferrin, or transferrin receptor antibody. Uptake in the brain endothelium and parenchyma was assessed by flow cytometry and confocal microscopy of the cortex and hippocampus. FIG. 12G includes representative images of ectopic ALPL activity (red) in the cerebral cortex vasculature of aged (22 m.o.) mice treated with ALPL inhibitor (anti-ALPL) or vehicle and in young (3 m.o.) mice. FIG. 12H is a graph illustrating quantification of ALPL activity in the cerebral cortex vasculature of aged (22 m.o.) mice treated with ALPL inhibitor (anti-ALPL) or vehicle and in young (3 m.o.) mice (n=6-9, one-way ANOVA with Tukey's multiple comparisons correction; mean+/−s.e.m.). FIGS. 12I-12L include graphs illustrating flow cytometry quantification of brain parenchymal (CD31−/CD45−) cell uptake of plasma in aged (22 m.o.) mice (FIG. 12I); plasma in young (3 m.o.) mice (FIG. 12J); human holo-transferrin (hu-Tf) in aged (22 m.o.) mice (FIG. 12K); or transferrin receptor antibody (TfR Ab) in aged (22 m.o.) mice (FIG. 12L) after ALPL inhibitor (anti-ALPL) and vehicle treatment, as assessed by the percent (%) of parenchymal cells that are tracer^+ and the relative mean fluorescence intensity (MFI) of tracer^+ parenchymal cells (for plasma, n=4; for hu-Tf, n=5-6; for TfR Ab, n=9, two-sided t-test; mean+/−s.e.m.). Tracer refers to plasma, hu-Tf, or TfR Ab FIG. 12M includes representative images of transferrin receptor antibody (TfR Ab) in the cortical vasculature (red) and parenchymal cells of ALPL inhibitor-treated aged (22 m.o.) mice. Arrowheads indicate TfR Ab^+ NeuN neurons. Scale bar=40 microns (left) and 10 microns (right). Data were replicated in at least 2 independent experiments.
CNS cell isolation adopted previously described methods42,139,140. Briefly, cortices and hippocampi were microdissected, minced, and digested using the Neural Dissociation Kit (Miltenyi). Suspensions were filtered through a 100 μm strainer and myelin removed by centrifugation in 0.9 M sucrose. The remaining myelin-depleted cell suspension was blocked for ten minutes with Fc preblock (CD16/CD32, BD 553141) on ice and stained for 30 minutes with antibodies to distinguish brain endothelial cells (CD31+/CD45−), astrocytes (ACSA-2+), and neurons (NeuN+ or CD90.2/Thy1.2+). For analysis of plasma uptake, at least 1,000 cells of each population of interest were analyzed per sample. […]
(A flow cytometer gives signals particle by particle.)

Here are results for one compound from patent US20230257480A1, “ENHANCING BLOOD-BRAIN BARRIER DRUG TRANSPORT BY TARGETING ENDOGENOUS REGULATORS” (THE BOARD OF TRUSTEES OF THE LELAND STANFORD JUNIOR …, priority 2019, published 2023).

Turning to `COc1ccc(OC)c(S(=O)(=O)Nc2cnc3ccccc3c2)c1` [ALPL inhibitor, 2,5-Dimethoxy-N-(quinolin-3-yl)benzenesulfonamide], at ALPL, the “ALPL activity in the aged brain vasculature” value was “decreased”. Besides, the “parenchymal uptake of transferrin receptor antibody” value in the test on brain parenchymal cells (aged (22 m.o.) mice, TfR Ab 20 mg/kg i.v.) was “increased”. Further, in the test with brain parenchymal cells (aged (22 m.o.) mice, hu-Tf 40 mg/kg i.v.), the “parenchymal uptake of human holo-transferrin” value is “increased”. For the same compound, the “amount of plasma taken up by participating cells” value in the test with brain parenchymal cells (aged mice, parenchymal cells (MFI)) is “increased”. For the same compound, the “percentage of plasma+ cells” value in the test with brain parenchymal cells (aged mice, parenchymal cells) is recorded as “did not change”. In the test on brain parenchymal cells (aged mice), the “plasma transport across the endothelium to brain parenchymal cells” value is given as “increased”. Besides, the “plasma transcytosis across the young BBB to the parenchyma” value in the test with brain parenchymal cells (young (3 m.o.) mice) is “did not significantly enhance”.
